In PubChem BioAssay AID1259407 (Chemical Carcinogenesis Research Information System (CCRIS), 2018):
Calls of active or inactive are those of the source. How the calls were made is not given here.

Tested on: CCRIS mutagenicity, Ames/micronucleus/aberration tests
Experiment: CCRIS mutagenicity studies
[1] = Test System: AMES SALMONELLA TYPHIMURIUM, Strain/Indicator: TA98, Metabolic Activation: NONE, Method: PREINCUBATION
[2] = Test System: AMES SALMONELLA TYPHIMURIUM, Strain/Indicator: TA98, Metabolic Activation: NONE, Method: STANDARD PLATE
[3] = Test System: AMES SALMONELLA TYPHIMURIUM, Strain/Indicator: TA100, Metabolic Activation: NONE, Method: PREINCUBATION
[4] = Test System: AMES SALMONELLA TYPHIMURIUM, Strain/Indicator: TA100, Metabolic Activation: NONE, Method: STANDARD PLATE
[5] = Test System: AMES SALMONELLA TYPHIMURIUM, Strain/Indicator: TA1535, Metabolic Activation: NONE, Method: PREINCUBATION
[6] = Test System: AMES SALMONELLA TYPHIMURIUM, Strain/Indicator: TA1537, Metabolic Activation: NONE, Method: PREINCUBATION

In the case of CCCCCCCCCCCCS, the mutagenic call (Test System: AMES SALMONELLA TYPHIMURIUM, Strain/Indicator: TA98, Metabolic Activation: HAMSTER, LIVER, S-9, AROCLOR 1254 (10%), Method: PREINCUBATION) is reported as “inactive; negative”, the mutagenic call (Test System: AMES SALMONELLA TYPHIMURIUM, Strain/Indicator: TA98, Metabolic Activation: HAMSTER, LIVER, S-9, AROCLOR 1254, Method: STANDARD PLATE) is reported as “inactive; negative” and the mutagenic call [1] is reported as “inactive; negative”. For the same compound, the mutagenic call [2] was “inactive; negative”, the mutagenic call (Test System: AMES SALMONELLA TYPHIMURIUM, Strain/Indicator: TA98, Metabolic Activation: RAT, LIVER, S-9, AROCLOR 1254 (10%), Method: PREINCUBATION) was “inactive; negative” and the mutagenic call (Test System: AMES SALMONELLA TYPHIMURIUM, Strain/Indicator: TA98, Metabolic Activation: RAT, LIVER, S-9, AROCLOR 1254, Method: STANDARD PLATE) was “inactive; negative”. For the same compound, the mutagenic call (Test System: AMES SALMONELLA TYPHIMURIUM, Strain/Indicator: TA100, Metabolic Activation: HAMSTER, LIVER, S-9, AROCLOR 1254 (10%), Method: PREINCUBATION) was “inactive; negative”, the mutagenic call (Test System: AMES SALMONELLA TYPHIMURIUM, Strain/Indicator: TA100, Metabolic Activation: HAMSTER, LIVER, S-9, AROCLOR 1254, Method: STANDARD PLATE) was “inactive; negative” and the mutagenic call [3] was “inactive; negative”. For the same compound, the mutagenic call [4] was “inactive; negative”, the mutagenic call (Test System: AMES SALMONELLA TYPHIMURIUM, Strain/Indicator: TA100, Metabolic Activation: RAT, LIVER, S-9, AROCLOR 1254 (10%), Method: PREINCUBATION) was “inactive; negative” and the mutagenic call (Test System: AMES SALMONELLA TYPHIMURIUM, Strain/Indicator: TA100, Metabolic Activation: RAT, LIVER, S-9, AROCLOR 1254, Method: STANDARD PLATE) was “inactive; negative”. For the same compound, the mutagenic call (Test System: AMES SALMONELLA TYPHIMURIUM, Strain/Indicator: TA1535, Metabolic Activation: HAMSTER, LIVER, S-9, AROCLOR 1254 (10%), Method: PREINCUBATION) was “inactive; negative”, the mutagenic call (Test System: AMES SALMONELLA TYPHIMURIUM, Strain/Indicator: TA1535, Metabolic Activation: HAMSTER, LIVER, S-9, AROCLOR 1254, Method: STANDARD PLATE) was “inactive; negative” and the mutagenic call [5] was “inactive; negative”. For the same compound, the mutagenic call (Test System: AMES SALMONELLA TYPHIMURIUM, Strain/Indicator: TA1535, Metabolic Activation: NONE, Method: STANDARD PLATE) was “inactive; negative”, the mutagenic call (Test System: AMES SALMONELLA TYPHIMURIUM, Strain/Indicator: TA1535, Metabolic Activation: RAT, LIVER, S-9, AROCLOR 1254 (10%), Method: PREINCUBATION) was “inactive; negative” and the mutagenic call (Test System: AMES SALMONELLA TYPHIMURIUM, Strain/Indicator: TA1535, Metabolic Activation: RAT, LIVER, S-9, AROCLOR 1254, Method: STANDARD PLATE) was “inactive; negative”. The mutagenic call (Test System: AMES SALMONELLA TYPHIMURIUM, Strain/Indicator: TA1537, Metabolic Activation: HAMSTER, LIVER, S-9, AROCLOR 1254 (10%), Method: PREINCUBATION) was “inactive; negative”, the mutagenic call (Test System: AMES SALMONELLA TYPHIMURIUM, Strain/Indicator: TA1537, Metabolic Activation: HAMSTER, LIVER, S-9, AROCLOR 1254, Method: STANDARD PLATE) was “inactive; negative” and the mutagenic call [6] was “inactive; negative”. The mutagenic call (Test System: AMES SALMONELLA TYPHIMURIUM, Strain/Indicator: TA1537, Metabolic Activation: NONE, Method: STANDARD PLATE) was “inactive; negative”, the mutagenic call (Test System: AMES SALMONELLA TYPHIMURIUM, Strain/Indicator: TA1537, Metabolic Activation: RAT, LIVER, S-9, AROCLOR 1254 (10%), Method: PREINCUBATION) was “inactive; negative” and the mutagenic call (Test System: AMES SALMONELLA TYPHIMURIUM, Strain/Indicator: TA1537, Metabolic Activation: RAT, LIVER, S-9, AROCLOR 1254, Method: STANDARD PLATE) was “inactive; negative”. The mutagenic call (Test System: AMES SALMONELLA TYPHIMURIUM, Strain/Indicator: TA1538, Metabolic Activation: HAMSTER, LIVER, S-9, AROCLOR 1254, Method: STANDARD PLATE) was “inactive; negative”, the mutagenic call (Test System: AMES SALMONELLA TYPHIMURIUM, Strain/Indicator: TA1538, Metabolic Activation: NONE, Method: STANDARD PLATE) was “inactive; negative” and the mutagenic call (Test System: AMES SALMONELLA TYPHIMURIUM, Strain/Indicator: TA1538, Metabolic Activation: RAT, LIVER, S-9, AROCLOR 1254, Method: STANDARD PLATE) was “inactive; negative”. For the same compound, the mutagenic call (Test System: MOUSE LYMPHOMA, Strain/Indicator: L5178Y (TK+/TK-), Metabolic Activation: NONE, Method: SUSPENSION/PLATE) was “inactive; negative. reevaluation of results: negative” and the mutagenic call (Test System: MOUSE LYMPHOMA, Strain/Indicator: L5178Y (TK+/TK-), Metabolic Activation: RAT, LIVER, S-9, AROCLOR 1254, Method: SUSPENSION/PLATE) was “inactive; negative. reevaluation of results: negative”.

In the case of COC(=O)c1cc(Oc2ccc(Cl)cc2Cl)ccc1[N+](=O)[O-], the mutagenic call (Test System: AMES SALMONELLA TYPHIMURIUM, Strain/Indicator: YG1021, Metabolic Activation: NONE, Method: PREINCUBATION) is reported as “inactive; negative”, the mutagenic call (Test System: AMES SALMONELLA TYPHIMURIUM, Strain/Indicator: YG1021, Metabolic Activation: RAT, LIVER, S-9, PCB, Method: PREINCUBATION) is reported as “inactive; negative” and the mutagenic call (Test System: AMES SALMONELLA TYPHIMURIUM, Strain/Indicator: YG1026, Metabolic Activation: NONE, Method: PREINCUBATION) is reported as “inactive; negative”. For the same compound, the mutagenic call (Test System: AMES SALMONELLA TYPHIMURIUM, Strain/Indicator: YG1026, Metabolic Activation: RAT, LIVER, S-9, PCB, Method: PREINCUBATION) was “active; positive”.

In the case of Cc1ccccc1C, the mutagenic call (Test System: AMES SALMONELLA TYPHIMURIUM, Strain/Indicator: TA98, Metabolic Activation: HAMSTER, LIVER, S-9, AROCLOR 1254, Method: PREINCUBATION) is reported as “inactive; negative”, the mutagenic call [1] is reported as “inactive; negative” and the mutagenic call [2] is reported as “inactive; negative”. For the same compound, the mutagenic call (Test System: AMES SALMONELLA TYPHIMURIUM, Strain/Indicator: TA98, Metabolic Activation: RAT, LIVER, S-9, AROCLOR 1254, Method: PREINCUBATION) was “inactive; negative”, the mutagenic call (Test System: AMES SALMONELLA TYPHIMURIUM, Strain/Indicator: TA98, Metabolic Activation: RAT, LIVER, S-9, AROCLOR, Method: STANDARD PLATE) was “inactive; negative” and the mutagenic call (Test System: AMES SALMONELLA TYPHIMURIUM, Strain/Indicator: TA100, Metabolic Activation: HAMSTER, LIVER, S-9, AROCLOR 1254, Method: PREINCUBATION) was “inactive; negative”. The mutagenic call [3] was “inactive; negative”, the mutagenic call [4] was “inactive; negative” and the mutagenic call (Test System: AMES SALMONELLA TYPHIMURIUM, Strain/Indicator: TA100, Metabolic Activation: RAT, LIVER, S-9, AROCLOR 1254, Method: PREINCUBATION) was “inactive; negative”. The mutagenic call (Test System: AMES SALMONELLA TYPHIMURIUM, Strain/Indicator: TA100, Metabolic Activation: RAT, LIVER, S-9, AROCLOR, Method: STANDARD PLATE) was “inactive; negative”, the mutagenic call (Test System: AMES SALMONELLA TYPHIMURIUM, Strain/Indicator: TA1535, Metabolic Activation: HAMSTER, LIVER, S-9, AROCLOR 1254, Method: PREINCUBATION) was “inactive; negative” and the mutagenic call [5] was “inactive; negative”. For the same compound, the mutagenic call (Test System: AMES SALMONELLA TYPHIMURIUM, Strain/Indicator: TA1535, Metabolic Activation: RAT, LIVER, S-9, AROCLOR 1254, Method: PREINCUBATION) was “inactive; negative”, the mutagenic call (Test System: AMES SALMONELLA TYPHIMURIUM, Strain/Indicator: TA1537, Metabolic Activation: HAMSTER, LIVER, S-9, AROCLOR 1254, Method: PREINCUBATION) was “inactive; negative” and the mutagenic call [6] was “inactive; negative”. The mutagenic call (Test System: AMES SALMONELLA TYPHIMURIUM, Strain/Indicator: TA1537, Metabolic Activation: RAT, LIVER, S-9, AROCLOR 1254, Method: PREINCUBATION) was “inactive; negative”, the mutagenic call (Test System: AMES SALMONELLA TYPHIMURIUM, Strain/Indicator: UTH8413, Metabolic Activation: NONE, Method: STANDARD PLATE) was “inactive; negative” and the mutagenic call (Test System: AMES SALMONELLA TYPHIMURIUM, Strain/Indicator: UTH8413, Metabolic Activation: RAT, LIVER, S-9, AROCLOR, Method: STANDARD PLATE) was “inactive; negative”. The mutagenic call (Test System: AMES SALMONELLA TYPHIMURIUM, Strain/Indicator: UTH8414, Metabolic Activation: NONE, Method: STANDARD PLATE) was “inactive; negative” and the mutagenic call (Test System: AMES SALMONELLA TYPHIMURIUM, Strain/Indicator: UTH8414, Metabolic Activation: RAT, LIVER, S-9, AROCLOR, Method: STANDARD PLATE) was “inactive; negative”.

For C[C@]12CC[C@@H]3c4ccc(O)cc4CC[C@H]3[C@@H]1C[C@@H](O)C2=O, the mutagenic call (Test System: Ames Salmonella typhimurium, Strain/Indicator: TA98, Metabolic Activation: None, Method: Standard plate) was “inactive; negative”, the mutagenic call (Test System: Ames Salmonella typhimurium, Strain/Indicator: TA98, Metabolic Activation: Rat, liver, S-9, Method: Standard plate) was “inactive; negative” and the mutagenic call (Test System: Ames Salmonella typhimurium, Strain/Indicator: TA100, Metabolic Activation: None, Method: Standard plate) was “inactive; negative”. The mutagenic call (Test System: Ames Salmonella typhimurium, Strain/Indicator: TA100, Metabolic Activation: Rat, liver, S-9, Method: Standard plate) was “inactive; negative”.
